{"source": "patent US8323622B2", "about": "“Ionic complex nanoparticles for detecting heparanase activities and method for preparing the same” (Korea Institute of Science and Technology, priority 2009, dated 2012)", "key": {"heparanase [1]": {"target": "T1, heparanase (Homo sapiens, UniProt Q9Y251)", "T1 sequence (Q9Y251 158-543 limits assumed)": "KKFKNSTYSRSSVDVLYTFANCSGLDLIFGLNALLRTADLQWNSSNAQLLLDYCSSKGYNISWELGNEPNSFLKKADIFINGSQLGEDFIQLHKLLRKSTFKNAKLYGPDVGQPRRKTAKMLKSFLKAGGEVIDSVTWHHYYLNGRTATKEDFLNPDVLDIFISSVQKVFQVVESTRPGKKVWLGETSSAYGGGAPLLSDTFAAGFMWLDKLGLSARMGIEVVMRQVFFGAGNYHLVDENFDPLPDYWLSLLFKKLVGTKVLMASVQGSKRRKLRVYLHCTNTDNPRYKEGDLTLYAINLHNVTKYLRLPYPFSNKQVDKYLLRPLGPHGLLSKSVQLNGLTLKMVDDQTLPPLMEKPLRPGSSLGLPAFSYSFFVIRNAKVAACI", "T1 sequence (Q9Y251 36-109 limits assumed)": "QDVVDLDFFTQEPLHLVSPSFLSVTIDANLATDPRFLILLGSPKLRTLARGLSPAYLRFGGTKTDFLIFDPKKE", "test": "Fluorescence recovery of nanoparticles treated with heparanase or heparanase+inhibitor", "type": "biochemical", "conditions": "37[…], one hour; HS-Cy5.5/GC-BHQ3 probe", "method": "By using the ionic-complex nanoparticles of HS-Cy5.5/GC-BHQ3 prepared in the preparation example 1, heparanase activities with or without heparanase inhibitor treatment were imaged.\nThe ionic-complex nanoparticles of HS-Cy5.5/GC-BHQ3 prepared in the preparation example 1 were treacted with ‘heparanase’ and ‘heparanase+inhibitor’ at a temperature of 37 °C for one hour, and then fluorescence emission therefrom by an enzyme degradation reaction was observed. After lapse of one hour, the fluorescence of the nanoparticles was observed by using a Kodak Image Station 4000MM Digital Imaging System mounted with a charge coupled device (CCD) camera. […] From the result, it could be seen that the ionic-complex nanoparticles of HS-Cy5.5/GC-BHQ3 could image heparanase enzymes, and could be applied to a composition for screening drugs of heparanase inhibitors or effects of drugs."}, "heparanase [2]": {"target": "T2, heparanase (Mus musculus, UniProt Q6YGZ1)", "T2 construct": "It is known that the SCC7 cancer tissues express a large amount of heparanase; from tissue; host or cells: SCC7 tumour tissue in nude mice", "T2 sequence (Q6YGZ1 150-535 limits assumed)": "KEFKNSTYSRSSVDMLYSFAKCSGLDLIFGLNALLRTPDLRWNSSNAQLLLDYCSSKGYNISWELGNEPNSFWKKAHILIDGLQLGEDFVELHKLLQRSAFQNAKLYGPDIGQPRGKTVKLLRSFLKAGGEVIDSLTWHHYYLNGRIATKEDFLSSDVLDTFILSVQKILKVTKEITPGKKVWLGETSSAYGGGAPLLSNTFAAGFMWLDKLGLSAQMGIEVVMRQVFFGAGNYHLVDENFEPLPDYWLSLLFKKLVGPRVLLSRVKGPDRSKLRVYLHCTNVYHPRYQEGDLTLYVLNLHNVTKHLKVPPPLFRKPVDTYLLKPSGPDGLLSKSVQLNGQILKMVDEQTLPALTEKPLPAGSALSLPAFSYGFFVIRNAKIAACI", "T2 sequence (Q6YGZ1 28-101 limits assumed)": "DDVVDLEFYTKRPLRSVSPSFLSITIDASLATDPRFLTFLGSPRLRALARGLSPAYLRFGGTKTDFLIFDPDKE", "test": "Imaging of heparanase expression in SCC7 cancer model", "type": "in vivo", "conditions": "20 mg/kg heparin injected into cancer tissues 20 minutes before probe; SCC7 nude mice", "method": "To establish a cancer model, 1×10^6 SCC7 cancer cells were implanted in nude mice. Here, the SCC7 are epithelial cancer cells, and commercially available from American Type Culture Collection (ATCC). Next, when the cancer has a size of about 5-8 mm, the ionic-complex nanoparticles of HS-Cy5.5/GC-BHQ3 were injected into veins of the mice tails. Then, heparanase expression was imaged by using an eXplore Optix image device.\nIt is known that the SCC7 cancer tissues express a large amount of heparanase. Accordingly, in order to test the ability of a heparanase inhibitor to inhibit heparanase, 20 mg/kg of heparin was injected into cancer tissues. After lapse of 20 minutes, the ionic-complex nanoparticles of HS-Cy5.5/GC-BHQ3 were injected into veins of the mice tails. Then, decrease of heparanase activities was imaged by using the explore Optix image device."}}, "data": [{"substance": "heparin", "values": [{"measurement": "fluorescence intensity of nanoparticles when 'heparanase+inhibitor' were treated", "setting": "heparanase [1]", "result": "decreased"}, {"measurement": "fluorescence intensity in cancer tissues of heparanase inhibitor-injected group", "setting": "heparanase [2]", "result": "decreased fluorescence intensity"}]}]}
